Data on 23 compounds can be found in patent US20200062773A1, “4,4a,5,7-TETRAHYDRO-3H-FURO[3,4-b]PYRIDINYL COMPOUNDS” (Janssen Pharmaceutlca NV, priority 2016, published 2020).

SMILES strings stand for the structures.

The target of test [1] is T1, BACE2 (Homo sapiens, UniProt Q9Y5Z0).
T1 construct: recombinant BACE2 protein in a final concentration of 0.4 μg/ml
T1 sequence (Q9Y5Z0 63-518): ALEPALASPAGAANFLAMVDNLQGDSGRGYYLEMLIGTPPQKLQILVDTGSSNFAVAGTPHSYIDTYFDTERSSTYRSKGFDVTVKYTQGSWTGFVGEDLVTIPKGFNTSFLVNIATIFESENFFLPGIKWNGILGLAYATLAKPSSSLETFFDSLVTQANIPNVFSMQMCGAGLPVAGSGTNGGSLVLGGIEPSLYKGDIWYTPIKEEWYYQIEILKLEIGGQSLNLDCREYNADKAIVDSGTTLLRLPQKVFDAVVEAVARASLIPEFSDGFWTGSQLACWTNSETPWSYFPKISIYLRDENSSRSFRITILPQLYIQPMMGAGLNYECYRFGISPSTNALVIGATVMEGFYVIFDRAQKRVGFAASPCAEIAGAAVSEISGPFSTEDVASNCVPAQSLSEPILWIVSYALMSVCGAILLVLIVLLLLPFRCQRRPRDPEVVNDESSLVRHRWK
The test can be described thus: BACE2 biochemical FRET based assay. The settings on record: recombinant BACE2, 450 minutes at room temperature, pH 5.0; for IC50: read-out: Biochemical FRET based assay pIC50 (converted). From the text:
BACE2 Biochemical FRET Based Assay
(§1) This assay is a Fluorescence Resonance Energy Transfer Assay (FRET) based assay. The substrate for this assay contains the ‘Swedish’ Lys-Met/Asn-Leu mutation of the amyloid precursor protein (APP) beta-site APP-cleaving enzyme cleavage site. This substrate also contains two fluorophores: (7-methoxycoumarin-4-yl) acetic acid (Mca) is a fluorescent donor with excitation wavelength at 320 nm and emission at 405 nm and 2,4-Dinitrophenyl (Dnp) is a proprietary quencher acceptor. […] Upon cleavage by the beta-site APP-cleaving enzyme, the fluorophore Mca is separated from the quenching group Dnp, restoring the full fluorescence yield of the donor. The increase in fluorescence is linearly related to the rate of proteolysis.
Briefly in a 384-well format recombinant BACE2 protein in a final concentration of 0.4 μg/ml is incubated for 450 minutes at room temperature with 10 μM substrate in incubation buffer (50 mM Citrate buffer pH 5.0, 0.05% PEG, no DMSO) in the absence or presence of compound. Next the amount of proteolysis is directly measured by fluorescence measurement at T=0 and T=450 (excitation at 320 nm and emission at 405 nm). Results are expressed in RFU (Relative Fluorescence Units), as difference between T450 and T0.
(§2) A best-fit curve is fitted by a minimum sum of squares method to the plot of % Controlmin versus compound concentration. From this an IC50 value (inhibitory concentration causing 50% inhibition of activity) can be obtained.

The target of test [2] is T2, BACE1 (Homo sapiens, UniProt P56817).
T2 construct: recombinant BACE1 protein in a final concentration of 1 μg/ml
T2 sequence (P56817 46-501): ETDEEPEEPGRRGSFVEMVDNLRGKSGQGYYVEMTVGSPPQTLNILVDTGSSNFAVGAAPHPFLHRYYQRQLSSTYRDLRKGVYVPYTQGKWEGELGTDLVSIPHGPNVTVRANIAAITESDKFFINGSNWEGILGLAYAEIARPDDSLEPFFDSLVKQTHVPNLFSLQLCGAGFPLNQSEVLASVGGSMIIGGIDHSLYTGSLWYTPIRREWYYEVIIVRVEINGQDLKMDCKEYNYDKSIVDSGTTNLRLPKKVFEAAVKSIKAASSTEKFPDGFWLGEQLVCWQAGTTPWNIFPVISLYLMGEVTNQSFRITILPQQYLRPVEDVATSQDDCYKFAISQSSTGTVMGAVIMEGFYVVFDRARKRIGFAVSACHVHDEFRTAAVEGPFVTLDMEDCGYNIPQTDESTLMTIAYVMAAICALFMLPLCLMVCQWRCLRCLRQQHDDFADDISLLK
The experiment in a line: BACE1 biochemical FRET based assay. The settings on record: Method 1: recombinant BACE1 1 μg/ml, 120 min at room temperature, pH 5.0; for IC50: read-out: Biochemical FRET based assay pIC50 (converted).
Source text: BACE1 Biochemical Fret Based Assay
as §1, with “this assay is an APP derived 13 amino acids peptide that contains the” for “this assay contains the”, “cleavage by BACE1, the fluorophore” for “cleavage by the beta-site APP-cleaving enzyme, the fluorophore”
Briefly in a 384-well format recombinant BACE1 protein in a final concentration of 1 μg/ml is incubated for 120 minutes at room temperature with 10 μm substrate in incubation buffer (40 mM Citrate buffer pH 5.0, 0.04% PEG, 4% DMSO) in the absence or presence of compound. Next the amount of proteolysis is directly measured by fluorescence measurement at T=0 and T=120 (excitation at 320 nm and emission at 405 nm). Results are expressed in RFU (Relative Fluorescence Units), as difference between T120 and T0.
as §2

In test [3] the test system is Abeta 1-42 produced and secreted into the medium of human neuroblastoma SKNBE2 cells. The test can be described thus: Cellular αLisa assay in SKNBE2 cells. The format is cell-based. The note with it: human neuroblastoma SKNBE2 cells expressing hAPP695, 18 hours incubation. How it is done:
Cellular αLisa Assay in SKNBE2 Cells
In two αLisa assays the levels of Abeta 1-42 produced and secreted into the medium of human neuroblastoma SKNBE2 cells are quantified. The assay is based on the human neuroblastoma SKNBE2 expressing the wild type Amyloid Precursor Protein (hAPP695). The compounds are diluted and added to these cells, incubated for 18 hours and then measurements of Abeta 1-42 are taken. Abeta 1-42 are measured by sandwich αLisa. αLisa is a sandwich assay using biotinylated antibody AbN/25 attached to streptavidin coated beads and antibody cAb42/26 conjugated acceptor beads for the detection of Abeta 1-42 respectively. In the presence of Abeta 1-42, the beads come into close proximity. The excitation of the donor beads provokes the release of singlet oxygen molecules that trigger a cascade of energy transfer in the acceptor beads, resulting in light emission. Light emission is measured after 1 hour incubation (excitation at […] and emission at 615 nm).
as §2

`CC1OCC2(c3cc(NC(=O)c4cnc(-n5cncn5)cn4)ccc3F)N=C(N)C(C)(C#N)CC12` (single isomer, unassigned) [15a]: the IC50 in test [1] is 0.158 µM; in test [2] it was 0.00741 µM. The “Cellular αLisa assay in SKNBE2 cells Abeta 42 pIC50” value (from here on “Cellular αLisa assay”) in test [3] came to 8.19.

Take `CC1OCC2(c3cc(NC(=O)c4cnc(-n5cncn5)cn4)ccc3F)N=C(N)C(C)(C#N)CC12` (single isomer, unassigned) [15b]: the values for the IC50 in test [1] and in test [2] were more than 10 µM and 1.55 µM, respectively. Also, the “Cellular αLisa assay” value in test [3] was found to be 5.62.

For the compound `CC1(C#N)CC2C(C(F)F)OCC2(c2cc(NC(=O)c3cnc(OCF)cn3)ccc2F)N=C1N` (single isomer, unassigned) [25a], the IC50 in test [1] was 0.141 µM; in test [2], 0.00891 µM. Also, the “Cellular αLisa assay” value in test [3] is listed as 7.74.

For `CC1(C#N)CC2C(C(F)F)OCC2(c2cc(NC(=O)c3cnc(OCF)cn3)ccc2F)N=C1N` (single isomer, unassigned) [25b], the values for the IC50 in test [1] and in test [2] were 0.891 µM and 0.0525 µM, respectively. Besides, the “Cellular αLisa assay” value in test [3] was 7.13.

Regarding `CC1OCC2(c3cc(NC(=O)c4cnc(OCF)cn4)cc(F)c3F)N=C(N)C(C)(C#N)CC12` (single isomer, unassigned) [31a], the IC50 was 2.4 µM in test [1] and 0.0661 µM in test [2]. For the same compound, in test [3], the “Cellular αLisa assay” value worked out at 7.15.

As for `CC1OCC2(c3cc(NC(=O)c4cnc(OCF)cn4)cc(F)c3F)N=C(N)C(C)(C#N)CC12` (single isomer, unassigned) [31b], the values for the IC50 in test [1] and in test [2] were more than 10 µM and 8.71 µM, respectively. In addition, in test [3], the “Cellular αLisa assay” value is less than 5.05.

Consider `CC1OCC2(c3cc(NC(=O)c4cnc(OCF)cn4)cc(F)c3F)N=C(N)C(C)(C#N)CC12` (single isomer, unassigned) [31c], for which the IC50 in test [1] was 0.158 µM; in test [2], 0.0155 µM. Further, in test [3], the “Cellular αLisa assay” value is 7.57.

For the compound `CC1OCC2(c3cc(NC(=O)c4cnc(OCF)cn4)cc(F)c3F)N=C(N)C(C)(C#N)CC12` (single isomer, unassigned) [31d], the IC50 in test [1] and in test [2] was more than 10 µM each time. In addition, the “Cellular αLisa assay” value in test [3] was less than 5.05.

Regarding `CC1OCC2(c3cc(NC(=O)c4cnc(-n5cncn5)cn4)cc(F)c3F)N=C(N)C(C)(C#N)CC12` (single isomer, unassigned) [32a], the IC50 in test [1] is 0.347 µM; in test [2] it was 0.0191 µM. Also, in test [3], the “Cellular αLisa assay” value is reported as 7.51.

For `CC1OCC2(c3cc(NC(=O)c4cnc(-n5cncn5)cn4)cc(F)c3F)N=C(N)C(C)(C#N)CC12` (single isomer, unassigned) [32b], the IC50 in test [1] was 9.55 µM; in test [2], 0.309 µM. In addition, in test [3], the “Cellular αLisa assay” value is reported as 5.97.

Take `CC1OCC2(c3cc(NC(=O)c4ccc(C#N)cn4)cc(F)c3F)N=C(N)C(C)(C#N)CC12` (single isomer, unassigned) [33a]: the IC50 in test [1] was more than 10 µM; in test [2], 7.59 µM. In addition, in test [3], the “Cellular αLisa assay” value is given as 5.14.

`CC1OCC2(c3cc(NC(=O)c4ccc(C#N)cn4)cc(F)c3F)N=C(N)C(C)(C#N)CC12` (single isomer, unassigned) [33b]: the IC50 was 0.0447 µM in test [1] and 0.0055 µM in test [2]. The “Cellular αLisa assay” value in test [3] came out at 7.81.

Turning to `CC1OCC2(c3cc(NC(=O)c4ccc(C#N)cn4)cc(F)c3F)N=C(N)C(C)(C#N)CC12` (single isomer, unassigned) [33c], the IC50 was 0.468 µM in test [1] and 0.0355 µM in test [2]. Besides, the “Cellular αLisa assay” value in test [3] stood at 7.37.

As to `CC1OCC2(c3cc(NC(=O)c4ccc(C#N)cn4)cc(F)c3F)N=C(N)C(C)(C#N)CC12` (single isomer, unassigned) [33d], the IC50 in test [1] was 8.91 µM; in test [2] it was 0.708 µM. In test [3], the “Cellular αLisa assay” value is given as 5.78.

Regarding `CC1(C#N)CC2C(C(F)(F)F)OCC2(c2cc(NC(=O)c3cnc(-n4cncn4)cn3)ccc2F)N=C1N` (single isomer, unassigned) [34a], the IC50 is 0.263 µM in test [1] and 0.00631 µM in test [2]. Moreover, the “Cellular αLisa assay” value in test [3] amounted to 7.57.

Take `CC1(C#N)CC2C(C(F)(F)F)OCC2(c2cc(NC(=O)c3cnc(-n4cncn4)cn3)ccc2F)N=C1N` (single isomer, unassigned) [34b]: the IC50 was more than 10 µM in test [1] and 1.02 µM in test [2]. For the same compound, the “Cellular αLisa assay” value in test [3] came to 5.31.

As to `CC1OCC2(c3cc(NC(=O)c4ccc(OC(F)F)cn4)ccc3F)N=C(N)C(C)(C#N)CC12` (single isomer, unassigned) [35a], the IC50 is 0.0832 µM in test [1] and 0.00562 µM in test [2]. The “Cellular αLisa assay” value in test [3] is 8.32.

For the compound `CC1OCC2(c3cc(NC(=O)c4ccc(OC(F)F)cn4)ccc3F)N=C(N)C(C)(C#N)CC12` (single isomer, unassigned) [35b], the IC50 in test [1] was more than 10 µM; in test [2] it was 0.741 µM. The “Cellular αLisa assay” value in test [3] worked out at 6.11.

Take `COc1cnc(C(=O)Nc2ccc(F)c([C@@]34CO[C@@H](C)[C@@H]3C[C@](C)(C#N)C(N)=N4)c2)cn1` [1a]: the “Biochemical FRET based assay pIC50” value in test [1] is less than 5; in test [2] it was 5.05. The “Cellular αLisa assay” value in test [3] is reported as 5.12.

With `COc1cnc(C(=O)Nc2ccc(F)c([C@]34CO[C@H](C)[C@H]3C[C@@](C)(C#N)C(N)=N4)c2)cn1` [1b], the “Biochemical FRET based assay pIC50” value is 7.21 in test [1] and 7.89 in test [2]. Besides, the “Cellular αLisa assay” value in test [3] was determined as 8.47.

For `C[C@@]1(C#N)C[C@@H]2[C@@H](C(F)(F)F)OC[C@]2(c2cc(NC(=O)c3ccc(F)cn3)ccc2F)N=C1N` [2c], the “Biochemical FRET based assay pIC50” value was found to be 8.3 in test [1] and 8.73 in test [2]. Moreover, the “Cellular αLisa assay” value in test [3] came to 8.32.

Take `C[C@]1(C#N)C[C@H]2[C@H](C(F)(F)F)OC[C@@]2(c2cc(NC(=O)c3ccc(F)cn3)ccc2F)N=C1N` [2d]: the “Biochemical FRET based assay pIC50” value in test [1] is listed as less than 5; in test [2], 5. Further, the “Cellular αLisa assay” value in test [3] is listed as less than 5.05.

On to `C[C@@]1(C#N)C[C@H]2[C@H](C(F)(F)F)OC[C@@]2(c2cc(NC(=O)c3ccc(F)cn3)ccc2F)N=C1N` [2e], for which the “Biochemical FRET based assay pIC50” value in test [1] and in test [2] was less than 5 in each case. Further, in test [3], the “Cellular αLisa assay” value is less than 5.05.
